Laboratory results: publication PMC4892293 (Drug Design, Development and Therapy, 2016)

Target: T1, human recombinant PPARγ (Homo sapiens, UniProt P37231)
T1 sequence (P37231 1-505): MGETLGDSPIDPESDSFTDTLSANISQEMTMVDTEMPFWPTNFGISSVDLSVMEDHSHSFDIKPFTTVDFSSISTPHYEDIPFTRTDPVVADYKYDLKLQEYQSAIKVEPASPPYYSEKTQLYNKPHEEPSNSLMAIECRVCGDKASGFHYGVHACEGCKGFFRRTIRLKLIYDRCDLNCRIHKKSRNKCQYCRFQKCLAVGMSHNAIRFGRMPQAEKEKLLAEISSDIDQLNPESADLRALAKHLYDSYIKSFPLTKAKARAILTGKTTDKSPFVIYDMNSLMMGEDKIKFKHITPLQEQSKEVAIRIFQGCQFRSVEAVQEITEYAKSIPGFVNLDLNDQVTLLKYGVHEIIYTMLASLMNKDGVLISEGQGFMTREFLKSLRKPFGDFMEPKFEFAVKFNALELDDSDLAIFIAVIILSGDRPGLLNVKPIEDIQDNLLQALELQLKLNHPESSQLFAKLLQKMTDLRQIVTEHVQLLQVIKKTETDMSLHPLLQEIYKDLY
Assay: FP-based PPARγ ligand screening assay
Type: binding
Conditions: concentration of 10.0 μM; Figure 2

Question: With “4-((5-(4-Chlorophenyl)-4-methylthiazol-2-yl)amino)-4-oxobutanoic acid [Compound 4f]” as the substance, how does the “agonistic activity in primary FP screening” value read?
Answer: unable to promote agonistic activity
